The values that follow come from ChEMBL document CHEMBL2074337, “Predicting P-glycoprotein effects on oral absorption: correlation of transport in Caco-2 with drug pharmacokinetics in wild-type and mdr1a(-/-) mice in vivo” (Pharm Res, 2004).

For the data set, the target named is ATP-dependent translocase ABCB1 (Homo sapiens, UniProt P08183). Put plainly: TP_TRANSPORTER: transepithelial transport in Caco 2 cell. Format: functional, cell-based. (In general: Caco-2 cells form a polarised layer with tight junctions and transporters.)
ATP-dependent translocase ABCB1, sequence (P08183 whole entry): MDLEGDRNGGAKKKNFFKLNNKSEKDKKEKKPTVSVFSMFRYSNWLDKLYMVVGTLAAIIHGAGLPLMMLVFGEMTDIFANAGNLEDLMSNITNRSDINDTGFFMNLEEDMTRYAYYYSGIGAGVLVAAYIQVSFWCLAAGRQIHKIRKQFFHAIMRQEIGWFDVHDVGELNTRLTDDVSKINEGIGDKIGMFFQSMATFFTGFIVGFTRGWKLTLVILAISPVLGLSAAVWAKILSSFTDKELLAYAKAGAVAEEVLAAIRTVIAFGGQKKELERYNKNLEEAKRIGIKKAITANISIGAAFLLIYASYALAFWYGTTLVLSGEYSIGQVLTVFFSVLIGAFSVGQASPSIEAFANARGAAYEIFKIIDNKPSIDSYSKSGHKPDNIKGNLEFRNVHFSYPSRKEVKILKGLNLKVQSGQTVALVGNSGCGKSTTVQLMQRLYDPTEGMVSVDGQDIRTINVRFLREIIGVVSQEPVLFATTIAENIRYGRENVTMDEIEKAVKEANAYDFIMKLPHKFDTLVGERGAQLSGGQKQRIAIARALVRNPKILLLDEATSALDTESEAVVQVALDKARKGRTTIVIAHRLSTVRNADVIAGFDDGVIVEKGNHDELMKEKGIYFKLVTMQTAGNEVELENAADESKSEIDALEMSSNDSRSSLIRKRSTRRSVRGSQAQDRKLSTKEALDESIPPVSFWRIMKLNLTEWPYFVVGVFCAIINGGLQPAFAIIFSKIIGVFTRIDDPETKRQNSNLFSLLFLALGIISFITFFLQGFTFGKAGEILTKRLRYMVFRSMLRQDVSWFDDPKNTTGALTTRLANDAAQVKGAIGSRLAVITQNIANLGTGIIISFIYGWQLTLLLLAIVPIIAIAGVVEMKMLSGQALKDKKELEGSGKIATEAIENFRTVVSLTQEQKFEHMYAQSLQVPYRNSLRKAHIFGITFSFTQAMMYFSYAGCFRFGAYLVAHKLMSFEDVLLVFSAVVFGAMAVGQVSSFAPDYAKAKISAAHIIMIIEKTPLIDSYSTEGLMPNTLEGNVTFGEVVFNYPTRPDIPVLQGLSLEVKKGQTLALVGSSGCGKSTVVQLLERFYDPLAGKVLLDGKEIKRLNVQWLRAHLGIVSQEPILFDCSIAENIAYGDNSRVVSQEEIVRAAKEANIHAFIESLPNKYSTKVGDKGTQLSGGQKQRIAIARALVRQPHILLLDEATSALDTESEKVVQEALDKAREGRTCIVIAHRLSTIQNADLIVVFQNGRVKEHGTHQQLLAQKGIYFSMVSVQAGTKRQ
As for `NS(=O)(=O)N1CCN(C2CN(CC[C@]3(c4ccc(Cl)c(Cl)c4)CCC(=O)N(CC4CC4)C3)C2)CC1`, the Activity result is “substrate [+]”.
`CO[C@H]1/C=C/O[C@@]2(C)Oc3c(C)c(O)c4c(O)c(c(/C=N/N5CCN(C)CC5)c(O)c4c3C2=O)NC(=O)/C(C)=C\C=C\[C@H](C)[C@H](O)[C@@H](C)[C@@H](O)[C@@H](C)[C@H](OC(C)=O)[C@@H]1C` [RIFAMPIN]: the Activity entry is “substrate [+]”.
In the case of `C=CCNc1nc(NCC=C)nc(N2CCC(NCC(c3ccc(F)cc3)c3ccc(F)cc3)CC2)n1`, the Activity result was “substrate [+]”.
Turning to `CC(=O)O[C@H]1C(=O)[C@@]2(C)[C@H]([C@H](OC(=O)c3ccccc3)[C@]3(O)C[C@H](OC(=O)[C@H](O)[C@@H](NC(=O)c4ccccc4)c4ccccc4)C(C)=C1C3(C)C)[C@]1(OC(C)=O)CO[C@@H]1C[C@@H]2O` [PACLITAXEL], the Activity entry was “substrate [+]”.
For `CC(C)(C)NC(=O)[C@@H]1C[C@@H]2CCCC[C@@H]2CN1C[C@@H](O)[C@H](Cc1ccccc1)NC(=O)[C@H](CC(N)=O)NC(=O)c1ccc2ccccc2n1` [SAQUINAVIR], the Activity result is “substrate [+]”.
The entry for `C=CC[C@@H]1/C=C(\C)C[C@H](C)C[C@H](OC)[C@H]2O[C@@](O)(C(=O)C(=O)N3CCCC[C@H]3C(=O)O[C@H](/C(C)=C/[C@@H]3CC[C@@H](O)[C@H](OC)C3)[C@H](C)[C@@H](O)CC1=O)[C@H](C)C[C@@H]2OC` [TACROLIMUS ANHYDROUS] is “substrate [+]”.
For the compound `CC[C@@]1(O)C(=O)OCc2c1cc1n(c2=O)Cc2cc3c(CN(C)C)c(O)ccc3nc2-1` [TOPOTECAN], the Activity entry was “substrate [+]”.
As to `C[C@H]1O[C@@H](O[C@H]2[C@@H](O)C[C@H](O[C@H]3[C@@H](O)C[C@H](O[C@H]4CC[C@@]5(C)[C@H](CC[C@@H]6[C@@H]5C[C@@H](O)[C@]5(C)[C@@H](C7=CC(=O)OC7)CC[C@]65O)C4)O[C@@H]3C)O[C@@H]2C)C[C@H](O)[C@@H]1O` [DIGOXIN], the Activity entry is “substrate [+]”.
